Laboratory results as given in patent US5545625A, “Preventing conversion of citrulline to argininosuccinate to limit pathological nitric oxide overproduction” (The Medical College of Wisconsin Research Foundation, Inc., priority 1994, dated 1996).
Values joined by “and” are separate entries in the source; they are usually repeats but may differ in a detail not shown here. Identical values can stand only once.

Key:
[1] = tested on: rat aortic smooth muscle cells; test: Nitrite production (indicator of cellular NO synthesis) by LPS/interferon-gamma induced rat aortic smooth muscle cells (Examples IV, V); format: cell-based; details: L-citrulline varied at fixed L-arginine (0 or low), added with immunostimulant; 24 hours; FIG. 5
Procedure: Rat aortic smooth muscle cells were grown as described in Example I and were continuously treated with 30 μg/ml of bacterial lipopolysaccharide in combination with 50 ng/ml of interferongamma. Concentrations of mithramycin as indicated in FIG. 4 were added either simultaneously with immunostimulant (filled in circles in FIG. 4) or 4 hours later (open circles in FIG. 4).
Nitrite was used as an indicator of cellular NO synthesis and assay was carried out as described in Gross, S. S., et al, J. Biol. Chem. 267, 25722-25729 (1992). In the assay, cells were treated with serum- and arginine-free RPMI 1640 medium containing the desired test agents for 24 hours. The accumulation of nitrite in the cell culture medium was quantified colorimetrically after adding 100 μl of Griess reagent (1% sulfanilamide and 0.1% naphthalene diamine in 5% o-phosphoric acid) to an equal volume of sample.
Rat aortic smooth muscle cells were grown as described in Example I and were treated with 30 μg/ml of bacterial lipopolysaccharide in combination with 50 ng/ml of interferon-gamma. Concentrations of L-citrulline and L-arginine as indicated in FIG. 5 were added simultaneously with immunostimulant. Nitrite was used as an indicator of cellular NO synthesis and assay therefor was carried out as described in Example IV.

[2] = biological target: T1, immunostimulant induced argininosuccinate synthetase (Rattus norvegicus, UniProt P09034); test: Argininosuccinate synthetase assay in crude homogenate of immunostimulant treated rat aortic smooth muscle cells (Example VI); format: biochemical; details: test compound 1 mM; for counts per minute in the argininosuccinate synthetase assay: duplicate runs, control 534.00 and 443.00, background 217, 237 and 252 not subtracted
T1 sequence (P09034 1-412): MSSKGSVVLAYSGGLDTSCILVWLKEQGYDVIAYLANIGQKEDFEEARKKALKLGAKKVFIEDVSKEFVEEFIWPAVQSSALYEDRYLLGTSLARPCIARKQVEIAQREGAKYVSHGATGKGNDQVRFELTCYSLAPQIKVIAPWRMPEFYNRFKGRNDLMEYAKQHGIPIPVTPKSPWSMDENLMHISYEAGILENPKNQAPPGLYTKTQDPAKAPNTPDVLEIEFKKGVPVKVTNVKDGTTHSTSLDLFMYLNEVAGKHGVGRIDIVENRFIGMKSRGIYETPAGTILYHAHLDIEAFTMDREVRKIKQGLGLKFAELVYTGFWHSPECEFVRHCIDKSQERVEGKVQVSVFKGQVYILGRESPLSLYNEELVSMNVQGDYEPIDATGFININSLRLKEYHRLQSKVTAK
Procedure: Argininosuccinate synthetase activity was assayed based on the conversion of [^14 C]aspartate to [^14 C]argininosuccinate, as described in O'Brien, W. E., Biochemistry 18, 5353-5356, 1979, with the exception that aspartate was present at a concentration of 30 μm (0.021 μCi/nmol). Reaction mixtures also contained L-citrulline (5 mM), Tris (10 mM, pH 7.5), ATP 0.1mM), phosphoenolpyruvate (1.5 mM), pyruvate kinase (4.5 units), myokinase (4 units), and pyrophosphatase (0.2 unit) in a total volume of 0.3 ml. Reactions were allowed to proceed for 90 minutes at 37° C before termination and quantification of the [^14 C]argininosuccinate formed, using ion exchange chromatography on Dowex 1-X8 (200-400 mesh, Bio-Rad).
Immunostimulant treated rat aortic smooth muscle cells prepared as in Example I were homogenized in 10 volumes (10 ml/gm rat aortic smooth muscle cells) of 100 mM tris buffer containing 1 mM phenylmethylsulfonyl fluoride ([…]) and 1 mM dithiothreitol (to maintain enzyme in reduced form).
For the control, the crude homogenate was assayed for argininosuccinate synthetase by the procedure as described in Example I except that L-citrulline was present at a concentration of 150 μM instead of 5 mM. In duplicate runs, counts per minute were 534.00 (8.65% error) and 443.00 (9.50% error) counts per minute.
The background count to be subtracted from the above count results was obtained by omitting citrulline from the argininosuccinate synthetase assay and in three runs was determined to be 217, 237 and 252 counts per minute.

[3] = tested on: patient with Gram negative septicemia; test: Blood pressure in septicemia patient given dopamine plus test agent (Examples IX, XV); format: in vivo, human; details: dopamine 10 μg/kg/min plus L-thiocitrulline 20 mg/kg bolus then 10 mg/kg/hr
Procedure: A patient with Gram negative septicemia and blood pressure of 80/55 mm Hg is administered dopamine at 10 μg/kg/min to acutely increase blood pressure and concurrently is administered mithramycin (25 μg/kg) intravenously in 50 ml saline over 3-6 hours.
A patient with Gram negative septicemia and blood pressure of 80/55 mm Hg is administered dopamine at 10 μg/kg/min to acutely increase blood pressure and concurrently is intravenously administered an initial bolus dose of L-thiocitrulline of 20 mg/kg and thereafter L-thiocitrulline as a sustained infusion at a dose of 10 mg/kg/hr.

[4] = tested on: human treated with interleukin-2; test: Hypotension during interleukin-2 treatment for renal cell cancer (Examples VIII, XIV); format: in vivo; details: interleukin-2 1×10^6, 5 days; L-thiocitrulline 10 mg/kg/day from start of infusion
Procedure: A human is treated for renal cell cancer with interleukin-2 (1×10^6 units) for 5 days. By the fifth day, the patient's blood pressure falls to 80/55 mm Hg and the patient encounters nausea and extreme discomfort. Three weeks later, the patient returns for a second course of interleukin-2 treatment but is pretreated (before commencing interleukin-2 infusion) with mithramycin (25 μg/kg) and is treated at 24 hour intervals thereafter with 25 μg/kg of mithramycin. The mithramycin is administered intravenously in 50 ml saline over a 3 to 6 hour interval.
A human is treated for renal cell cancer with interleukin-2 (1×10^6) for 5 days. Simultaneously with commencing interleukin-2 infusion, L-thiocitrulline (10 mg/kg/day) is administered.

Sprague-Dawley rats = test: Air pouch inflammatory model with croton oil (Examples XII, XVIII); format: in vivo, rat; details: L-thiocitrulline 20 mg/kg intraperitoneally, repeated at 6-24 hour intervals; end of 5 days; versus rats without drug
[5] = tested on: patient with Gram negative septicemia; test: Blood pressure in septicemia patient given N^G -methyl-L-arginine plus test agent (Examples X, XVI); format: in vivo, human; details: N^G -methyl-L-arginine 20 mg/kg bolus then 10 mg/kg/hr, plus N^ω -methyl-L-citrulline 40 mg/kg intravenously over 3-6 hours
Procedure: A patient with Gram negative septicemia and blood pressure of 80/55 mm Hg is administered N^G -methyl-L-arginine in a bolus dose of 20 mg/kg intravenously in saline and thereafter is given a sustained infusion of N^G -methyl-L-arginine at a dosage of 10 mg/kg/hr. Mithramycin (25 μg/kg) is given intravenously in 50 ml saline over 3-6 hours starting at the time of the bolus dose of N^G -methyl-L-arginine. […] The patient is released after 2 days.
A patient with a Gram negative septicemia and blood pressure of 80/55 mm Hg is administered N^G -methyl-L-arginine in a bolus dose of 20 mg/kg intravenously in saline and thereafter is given a sustained infusion of N^G -methyl-L-arginine at a dose of 10 mg/kg/hr. N^ω -Methyl-L-citrulline (40 mg/kg) is given intravenously in 50 ml saline over 3-6 hours starting at the time of the bolus dose of N^G -methyl-L-arginine.

| Compound | inhibition of immunostimulant induced argininosuccinate synthetase ([2]; stated in present tense) | inhibition of immunostimulant induced argininosuccinate synthetase ([2]; L-citrulline 150 μM) | counts per minute in the argininosuccinate synthetase assay ([2]; L-citrulline 150 μM) | further results |
| --- | --- | --- | --- | --- |
| NC(=O)NCCC[C@H](N)C(=O)O [L-citrulline] | – | – | – | nitrite concentration in cell culture medium [1]: maximal nitrite is obtained |
| CCC[C@H](N)C(=O)O [L-norvaline] | inhibition of immunostimulant induced argininosuccinate synthetase is shown | – | – | – |
| NC(=S)NCCC[C@H](N)C(=O)O [L-thiocitrulline] | – | are inhibitors of immunostimulant induced argininosuccinate synthetase | 272.00 (12.13% error) counts per minute and 227.00 (13.27% error) counts per minute | blood pressure [3]: becomes normal within minutes and this state is sustained; development of hypotension [4]: Hypotension does not develop; inflammation (Sprague-Dawley rats): less inflammation; nitrite in the fluid exudate of the lesion (Sprague-Dawley rats): significantly less nitrite |
| CNC(=N)NCCC[C@H](N)C(=O)O [N^ω -methyl-L-arginine] | – | – | 591.00 (8.23% error) counts per minute and 520.00 (8.77% error) counts per minute | – |
| CNC(=O)NCCC[C@H](N)C(=O)O [N^ω -methyl-L-citrulline] | more potent than obtained with L-canavanine but less potent than obtained with L-thiocitrulline | – | – | blood pressure [5]: becomes mildly hypotensive or normal within minutes |
| N=C(N)NOCC[C@H](N)C(=O)O [L-canavanine] | – | are inhibitors of immunostimulant induced argininosuccinate synthetase | 355.00 (10.61% error) counts per minute and 393.00 (10.09% error) counts per minute | – |
